{"source": "patent US20230143751A1", "about": "“Aromatic Compound And Use Thereof In Preparing Antineoplastic Drugs” (Shanghai Zheye Biotechnology Co. Ltd., priority 2020, published 2023)", "key": {"[1]": {"assay": "Analysis regarding therapeutic safety window", "conditions": "in vivo, oral, 5 days"}, "MIA PaCa-2 cells": {"tested_on": "MIA PaCa-2 cells", "assay": "Cell proliferation activity of MIA PaCa-2 by CellTiter-Glo reagent", "format": "cell-based", "conditions": "for IC50: Homo sapiens, MIA PaCa-2", "protocol": "MIA PaCa-2 cells in exponential growth phase were digested with trypsin-EDTA, plated in a 96-well plate with 2000-3000 cells per well, and incubated overnight at 37° C. with 5% CO2. Mother solutions were prepared from the test compounds by using DMSO, subjected to gradient elution with DMEM growth medium, and then added into the 96-well plate and incubated in an incubator for 72 h at 37° C. with 5% CO2. After the incubation, CellTiter-Glo test reagent with an equal volume was added into each well and the obtained 96-well plate was incubated after shaking. The chemiluminescence values were determined by microplate reader, and the IC50 values of the test compounds inhibiting the proliferation of MIA PaCa-2 cells were fitted and calculated by GraphPad Prism software.\nThe test method of inhibitory activity was the same as that in Test 2 in “Biological Tests” part."}, "[2]": {"tested_on": "MIA PaCa-2-derived xenograft tumor", "assay": "Pharmacodynamics test of MIA PaCa-2-derived xenograft tumor model in nude mice (test 6)", "format": "in vivo", "protocol": "Animal species and number: Balb/c Nude; 6 animals per group.\nTest samples: Compound 3-2, Compound 3-6, Compound 3-20, Compound 3-12M.\nTest groups: blank solvent control group; Compound 3-2 (10 mg/kg, QD×15 days), Compound 3-6 (10 mg/kg, QD×15 days), Compound 3-20 (10 mg/kg, QD×15 days), Compound 3-12M (10 mg/kg, QD×15 days).\nAnimal model establishment: MIA paca-2 tumor cells in logarithmic growth phase were cultured in vitro and collected, and inoculated subcutaneously into the right back of nude mice at a quantity of 5×10^6 cells/each. When the tumor volume reached 150-300 mm^3, the tumor-bearing nude mice were randomly grouped. Subsequently, the animals in each group were administered, and the day of the first administration was defined as day 1 of the test.\nAdministration route and frequency: oral administration by gavage; once a day.\nGeneral state observation: observation time and frequency: once a day; observation indexes or contents: including but not limited to administration location, appearance and signs, general behavioral activities, mental status, death and other abnormal performance of the animals. The animals were euthanized at the end of the test.\nTumor volume calculation: V=½×long diameter×short diameter^2 (mm^3). Tumor growth inhibition rate TGI (%) is used to evaluate the tumor inhibition efficacy of the compounds. TGI (%)=[1−(mean tumor volume in treatment group at the end of administration−mean tumor volume in treatment group at the beginning of administration)/(mean tumor volume in control group at the end of administration−mean tumor volume in control group at the beginning of administration)]×100%."}, "[3]": {"assay": "Safety test for repeated administration for 14 days in SD rats", "format": "in vivo", "conditions": "oral gavage once a day for 14 days, 50, 150, 400 mg/kg", "protocol": "Test samples: Compound 3-2, and Compound 3-6.\nAnimal species and number: SD rat; 6 animals per group (half male and half female).\nAdministration mode: oral administration by gavage.\nAnimal grouping and administration dose: vehicle blank group, Compound 3-2 group (50 mg/kg, 150 mg/kg, 400 mg/kg), Compound 3-6 group (50 mg/kg, 150 mg/kg, 400 mg/kg).\nAdministration frequency: once a day for 14 days.\nGeneral clinical observations were performed 2 times a day (once in the morning and once in the afternoon) during the test period. Death, morbidity, respiration, secretions, feces, and diet, drinking situation and so on were observed, and the changes in body weight of the rats during the administration period were recorded. The contents of detailed clinical observation included but were not limited to behavioral activity, skin, coat, eyes, ears, nose, abdomen, external genitalia, anus, extremities, feet, and respiration. The animals in each group were euthanized at the end of administration period, and all animals were dissected and subjected to gross observation."}}, "note": "Where two headings read alike, the source gives them in different places."}
{"smiles": "C=CC(=O)N1CCN(c2nc(=O)n(-c3c(C)ccnc3C(C)C)c3nc(-c4ccccc4C=C)c(Cl)cc23)[C@@H](C)C1", "note": "[Compound 3-2]", "values": [{"measurement": "therapeutic safety window: ratio of toxic dose to effective dose", "setting": "[1]", "value": "greater than 80"}, {"measurement": "anti-cell proliferation activity against KRAS G12C mutant type cells MIA PaCa-2 (in words)", "setting": "MIA PaCa-2 cells; 72 h, CellTiter-Glo", "value": "significant anti-cell proliferation activity"}, {"measurement": "IC50", "setting": "MIA PaCa-2 cells; 72 h, CellTiter-Glo, read-out: IC50 value of cell proliferation inhibitory activity of the compound on MIA PaCa-2", "value": "< 0.05", "unit": "µM"}, {"measurement": "IC50", "setting": "MIA PaCa-2 cells; test 12, method of test 2, read-out: IC50 of proliferation inhibitory activity of the compound on MIA Paca-2 cell line", "value": "≤ 0.015", "unit": "µM"}, {"measurement": "proliferation inhibitory activity on MIA Paca-2 cell line compared with Compound TM-2 (in words)", "setting": "MIA PaCa-2 cells; test 12", "value": "remarkable better"}, {"measurement": "inhibition effect on the growth of subcutaneously transplanted tumors derived from pancreatic cancer MIA paca-2 cells in nude mice (in words)", "setting": "[2]; 10 mg/kg QD×15 days", "value": "significant inhibition effect"}, {"measurement": "Tumor inhibition rate (%)", "setting": "[2]; MIA PaCa-2 xenograft, nude mice, 10 mg/kg oral gavage QD×15 days", "value": "+++ (“+++” represents a tumor inhibition rate of >80%)"}, {"measurement": "water and food intake, activity and body weight during the administration period (in words)", "setting": "[3]", "value": "no significant abnormality was showed"}]}
